In PubChem BioAssay (NCI):
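Five compound concentrations were applied to cells in 96-well plates for 48 hours; endpoints were derived by simple linear interpolation of the resulting dose-response curve. TGI: total growth inhibition.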

Tests used:
Experiment in all cases: NCI anticancer screen, dose series, 48 h
MCF7 breast = test system: MCF7 breast
UACC-62 melanoma = test system: UACC-62 melanoma
SN12C renal = test system: SN12C renal
COLO 205 colon = test system: COLO 205 colon
HS 578T breast = test system: HS 578T breast
SR leukemia = test system: SR leukemia
SF-295 CNS = test system: SF-295 CNS
BT-549 breast = test system: BT-549 breast
SK-MEL-28 melanoma = test system: SK-MEL-28 melanoma
UACC-257 melanoma = test system: UACC-257 melanoma

Row | SMILES | TGI (MCF7 breast) | TGI (UACC-62 melanoma) | TGI (SN12C renal) | TGI (COLO 205 colon) | TGI (HS 578T breast) | TGI (SR leukemia) | TGI (SF-295 CNS) | TGI (BT-549 breast) | TGI (SK-MEL-28 melanoma) | TGI (UACC-257 melanoma)
1 | COC1=CC(=O)N(C)C(O)C1(C#N)OC1OC(CO)C(O)C(O)C1O (stereo not given) | > 100 µM | > 100 µM | > 100 µM | > 100 µM | > 100 µM | > 100 µM | > 100 µM | > 100 µM | > 100 µM | > 100 µM
2 | Clc1ccc(C2=CCN3CC=C(c4ccc(Cl)cc4)C23)cc1 | 28.6 µM | 21.2 µM | 21 µM | 6.28 µM | 30.3 µM | 21.9 µM | 28.9 µM | 24 µM | 28 µM | 24.2 µM
3 | CCOC1=C(c2ccccc2)N2CCCCC2O1 (stereo not given) | 51.9 µM | 10 µM | > 41.9 µM | 4.7 µM | 33.1 µM | > 31.6 µM | 15.5 µM | 26.3 µM | > 63.2 µM | > 33.6 µM
4 | Oc1ccc(Oc2cc3c(cc2Oc2ccc(O)cc2)-c2nc-3nc3[nH]c(nc4nc(nc5[nH]c(n2)c2cc(Oc6ccc(O)cc6)c(Oc6ccc(O)cc6)cc52)-c2cc(Oc5ccc(O)cc5)c(Oc5ccc(O)cc5)cc2-4)c2cc(Oc4ccc(O)cc4)c(Oc4ccc(O)cc4)cc32)cc1 | > 100 µM | > 100 µM | > 100 µM | > 100 µM | > 100 µM | > 100 µM | 95.6 µM | > 100 µM | > 100 µM | > 100 µM
5 | COc1cc2nc(-c3cccs3)nc(Nc3cccc(Cl)c3)c2cc1OC | > 100 µM | > 100 µM | > 100 µM | > 100 µM | > 100 µM | > 100 µM | 69.2 µM | > 100 µM | > 100 µM | > 100 µM
6 | O=C1NC(N2CCOCC2)=N/C1=C\c1ccc(O)cc1 | > 100 µM | > 100 µM | > 100 µM | > 100 µM | > 100 µM | > 100 µM | > 100 µM | > 100 µM | > 100 µM | > 100 µM
7 | CC(=O)C(C)(C)CCC(C)(C)C(C)=O | > 100 µM | > 100 µM | > 100 µM | > 100 µM | > 100 µM | > 100 µM | > 100 µM | > 100 µM | > 100 µM | > 100 µM
8 | OC(NN=C1CCCC1)(C(F)(F)Cl)C(F)(F)Cl | > 10 µM | > 10 µM | > 10 µM | > 10 µM | > 10 µM | > 10 µM | > 10 µM | > 10 µM | > 10 µM | > 10 µM
9 | CC1CCC2(OC1)OC1C(O)C3C4CCC5CC(OC6OC(CO)C(OC7OC(CO)C(O)C(OC8OCC(O)C(O)C8O)C7OC7OC(CO)C(O)C(OC8OC(CO)C(O)C(O)C8O)C7O)C(O)C6O)C(O)CC5(C)C4CCC3(C)C1C2C (stereo not given) | 4.78 µM | 14.1 µM | 9.88 µM | 3.6 µM | 4.5 µM | 18.8 µM | 3.66 µM | 3.19 µM | > 100 µM | 22.9 µM
10 | Oc1ccc(-c2nc3ccccc3s2)cc1 | > 100 µM | > 100 µM | > 100 µM | > 100 µM | 78.8 µM | 87.7 µM | > 100 µM | > 100 µM | > 100 µM | > 100 µM
